This is an account of results in EPA's ToxValDB 9.5 (doi:10.2903/j.efsa.2008.140r).

≈ marks a conversion by molar mass, not a printed value.

For data set [1], the system named is Typhlodromus pyri. The settings on record: not reported; other.
Data set [2] concerns Rattus norvegicus. The settings on record: for NOAEL: chronic.
The test system of data set [3] is Oncorhynchus mykiss.
Data set [4] deals with Canidae. The settings on record: chronic; duration: 1 years; oral; Dog Other; clinical signs.
The test system of data set [5] is Daphnia magna. The settings on record: chronic/long-term; duration: 21 days; reproduction.
Data set [6] deals with Colinus virginianus. The settings on record: acute; oral; mortality.
For data set [7], the system named is Tagia sp.

Regarding `CCN(CC)C(=O)C(C)Oc1cccc2ccccc12` (stereo unspecified) [Napropamide], the LEL in data set [1] amounted to 4500 g/ha. In addition, the LD50 in data set [2] (acute, mortality) is 4680 mg/kg-day; in data set [6] it was greater than 2250 mg/kg-day. Besides, the NOAEL was found to be 30 mg/kg-day in data set [2] (duration: 2 years, oral, body weight); 30 mg/kg-day in data set [2] (mortality); 50 mg/kg-day in data set [4]. Also, the LC50 was determined as 6.6 µg/mL (≈ 24.3 µM) in data set [3] (acute, duration: 96 hours, mortality) and 564 mg/kg in data set [7] (acute, duration: 14 days, mortality). The NOEC in data set [3] (chronic/long-term, duration: 28 days, growth) amounted to 1.1 mg/L; in data set [5] it was 4.3 mg/L; in data set [7] (chronic/long-term, reproduction) it was 60 mg/kg.
